Experimental data from the NIST ThermoML archive (doi:10.1016/j.jct.2019.02.031).
± gives the expanded uncertainty stated by the source.

Columns and labels:
[1] = 101 kPa, Liquid; for viscosity: Falling or rolling sphere viscometry; for mass density: Vibrating tube method
[2] = molar heat capacity at constant pressure; conditions: 101.33 kPa, Liquid, DSC
[3] = xn = mol fraction of the nth substance listed; conditions: 101 kPa, Liquid, x2 = 0; for viscosity: Falling or rolling sphere viscometry; for mass density: Vibrating tube method

Cn1cc[n+](CCC[N+](C)(C)C)c1.N#C[N-]C#N.N#C[N-]C#N
viscosity ([1]; 283.15 K): 4998 ± 870 mPa·s | mass density ([1]; 283.15 K): 1162.82 ± 2 kg/m3 | viscosity ([1]; 288.15 K): 2736 ± 430 mPa·s | mass density ([1]; 288.15 K): 1159.76 ± 2 kg/m3 | viscosity ([1]; 293.15 K): 1608 ± 240 mPa·s | mass density ([1]; 293.15 K): 1156.74 ± 2 kg/m3 | viscosity ([1]; 298.15 K): 1007 ± 140 mPa·s | mass density ([1]; 298.15 K): 1153.73 ± 2 kg/m3 | viscosity ([1]; 303.15 K): 662.9 ± 85 mPa·s | mass density ([1]; 303.15 K): 1150.76 ± 2 kg/m3 | viscosity ([1]; 308.15 K): 455.4 ± 55 mPa·s | mass density ([1]; 308.15 K): 1147.8 ± 2 kg/m3 | viscosity ([1]; 313.15 K): 324.6 ± 37 mPa·s | mass density ([1]; 313.15 K): 1144.89 ± 2 kg/m3 | viscosity ([1]; 318.15 K): 239.7 ± 27 mPa·s | mass density ([1]; 318.15 K): 1142 ± 2 kg/m3 | viscosity ([1]; 323.15 K): 181.2 ± 20 mPa·s | mass density ([1]; 323.15 K): 1139.11 ± 2 kg/m3 | viscosity ([1]; 328.15 K): 141.1 ± 15 mPa·s | mass density ([1]; 328.15 K): 1136.24 ± 2 kg/m3 | viscosity ([1]; 333.15 K): 111.9 ± 12 mPa·s | mass density ([1]; 333.15 K): 1133.4 ± 2 kg/m3 | molar heat capacity at constant pressure ([2]; 298.15 K): 519.44 ± 85 J/K/mol | molar heat capacity at constant pressure ([2]; 303.15 K): 521.65 ± 85 J/K/mol | molar heat capacity at constant pressure ([2]; 308.15 K): 523.85 ± 86 J/K/mol | molar heat capacity at constant pressure ([2]; 313.15 K): 526.06 ± 86 J/K/mol | molar heat capacity at constant pressure ([2]; 318.15 K): 527.95 ± 86 J/K/mol | molar heat capacity at constant pressure ([2]; 323.15 K): 530.48 ± 87 J/K/mol | molar heat capacity at constant pressure ([2]; 328.15 K): 532.69 ± 87 J/K/mol | molar heat capacity at constant pressure ([2]; 333.15 K): 535.21 ± 88 J/K/mol | molar heat capacity at constant pressure ([2]; 338.15 K): 537.1 ± 88 J/K/mol | molar heat capacity at constant pressure ([2]; 343.15 K): 539.62 ± 88 J/K/mol | molar heat capacity at constant pressure ([2]; 348.15 K): 541.83 ± 89 J/K/mol | molar heat capacity at constant pressure ([2]; 353.15 K): 543.72 ± 89 J/K/mol | molar heat capacity at constant pressure ([2]; 358.15 K): 546.25 ± 90 J/K/mol | molar heat capacity at constant pressure ([2]; 363.15 K): 548.14 ± 90 J/K/mol | molar heat capacity at constant pressure ([2]; 368.15 K): 550.66 ± 90 J/K/mol | molar heat capacity at constant pressure ([2]; 373.15 K): 553.19 ± 91 J/K/mol | molar heat capacity at constant pressure ([2]; 378.15 K): 555.39 ± 91 J/K/mol | molar heat capacity at constant pressure ([2]; 383.15 K): 557.92 ± 91 J/K/mol | molar heat capacity at constant pressure ([2]; 388.15 K): 560.12 ± 92 J/K/mol | molar heat capacity at constant pressure ([2]; 393.15 K): 562.33 ± 92 J/K/mol | molar heat capacity at constant pressure ([2]; 398.15 K): 564.85 ± 92 J/K/mol | molar heat capacity at constant pressure ([2]; 403.15 K): 567.06 ± 93 J/K/mol | molar heat capacity at constant pressure ([2]; 408.15 K): 569.27 ± 93 J/K/mol | molar heat capacity at constant pressure ([2]; 413.15 K): 571.79 ± 94 J/K/mol | molar heat capacity at constant pressure ([2]; 418.15 K): 574.32 ± 94 J/K/mol | molar heat capacity at constant pressure ([2]; 423.15 K): 576.21 ± 94 J/K/mol

CC(C)O [propan-2-ol]
viscosity ([1]; 283.15 K): 3.352 ± 0.34 mPa·s | mass density ([1]; 283.15 K): 793.67 ± 2 kg/m3 | viscosity ([1]; 288.15 K): 2.843 ± 0.28 mPa·s | mass density ([1]; 288.15 K): 789.58 ± 2 kg/m3 | viscosity ([1]; 293.15 K): 2.423 ± 0.24 mPa·s | mass density ([1]; 293.15 K): 785.44 ± 2 kg/m3 | viscosity ([1]; 298.15 K): 2.08 ± 0.21 mPa·s | mass density ([1]; 298.15 K): 781.24 ± 2 kg/m3 | viscosity ([1]; 303.15 K): 1.792 ± 0.18 mPa·s | mass density ([1]; 303.15 K): 776.97 ± 2 kg/m3 | viscosity ([1]; 308.15 K): 1.554 ± 0.16 mPa·s | mass density ([1]; 308.15 K): 772.62 ± 2 kg/m3 | viscosity ([1]; 313.15 K): 1.352 ± 0.14 mPa·s | mass density ([1]; 313.15 K): 768.18 ± 2 kg/m3 | viscosity ([1]; 318.15 K): 1.183 ± 0.12 mPa·s | mass density ([1]; 318.15 K): 763.65 ± 2 kg/m3 | viscosity ([1]; 323.15 K): 1.039 ± 0.1 mPa·s | mass density ([1]; 323.15 K): 759.01 ± 2 kg/m3 | viscosity ([1]; 328.15 K): 0.918 ± 0.092 mPa·s | mass density ([1]; 328.15 K): 754.26 ± 2 kg/m3 | viscosity ([1]; 333.15 K): 0.813 ± 0.082 mPa·s | mass density ([1]; 333.15 K): 749.39 ± 2 kg/m3

CC(C)O [propan-2-ol] + Cn1cc[n+](CCC[N+](C)(C)C)c1.N#C[N-]C#N.N#C[N-]C#N
viscosity ([3]; 283.15 K): 3.352 ± 0.34 mPa·s | mass density ([3]; 283.15 K): 793.67 ± 2 kg/m3 | viscosity ([3]; 288.15 K): 2.843 ± 0.28 mPa·s | mass density ([3]; 288.15 K): 789.58 ± 2 kg/m3 | viscosity ([3]; 293.15 K): 2.423 ± 0.24 mPa·s | mass density ([3]; 293.15 K): 785.44 ± 2 kg/m3 | viscosity ([3]; 298.15 K): 2.08 ± 0.21 mPa·s | mass density ([3]; 298.15 K): 781.24 ± 2 kg/m3 | viscosity ([3]; 303.15 K): 1.792 ± 0.18 mPa·s | mass density ([3]; 303.15 K): 776.97 ± 2 kg/m3 | viscosity ([3]; 308.15 K): 1.554 ± 0.16 mPa·s | mass density ([3]; 308.15 K): 772.62 ± 2 kg/m3 | viscosity ([3]; 313.15 K): 1.352 ± 0.14 mPa·s | mass density ([3]; 313.15 K): 768.18 ± 2 kg/m3 | viscosity ([3]; 318.15 K): 1.183 ± 0.12 mPa·s | mass density ([3]; 318.15 K): 763.65 ± 2 kg/m3 | viscosity ([3]; 323.15 K): 1.039 ± 0.1 mPa·s | mass density ([3]; 323.15 K): 759.01 ± 2 kg/m3 | viscosity ([3]; 328.15 K): 0.918 ± 0.092 mPa·s | mass density ([3]; 328.15 K): 754.26 ± 2 kg/m3 | viscosity ([3]; 333.15 K): 0.813 ± 0.082 mPa·s | mass density ([3]; 333.15 K): 749.39 ± 2 kg/m3
